Data: patent EP0011608A1, “Novel allenic amine and acid addition salts thereof, a process for their preparation, pharmaceutical preparations comprising them and the use of these compounds in the preparation of pharmaceutical compositions” (priority 1978, dated 1980)

Legend:
Format in all cases: in vivo
[1] = system: monoamine oxidase enzyme; assay: MAO inhibition in mouse brain slices after intraperitoneal injection: deamination of [3H]tyramine; conditions: for ED50: deamination of tyramine, effective dose for 50 % inhibition, 1 h after adm.; for inhibition of the MAO activity against tyramine (in words): mouse, in vivo
Source text: (§1) It is not possible by experimental means to induce depressions in laboratory animals. In order to evaluate a possible antidepressive effect of new substances biochemical-pharmacological test methods must be resorted to. One such method, which seems to give good indication of the potential antidepressive effects of the test substances, is a test for monoamine oxidase enzyme inhibiting activity. The deamination of [^3H]phenethylamine, [^3H]tyramine, and [^14C]-5-hydroxytryptamine by brain slices was determined according to the following method.
(§2) Slices (100 mg) of the central part of the mouse brain including hypothalamus, thalamus, and midbrain were incubated for 5 min with 1 x 10^-7 M of the labeled substrate in 2.0 ml of Krebs-Henseleit's buffer, pH 7.4, containing […] of glucose, The slices were then homogenized in an all-glass homogenizer with 1.0 ml of 1 N HCl containing carrier amounts ([…]) of the nonlabeled amine and its deaminated acid product. An aliquot of 1.1 ml of a brain homogenate in 10 vol of 1 N HCl containing the substrate and product carriers was added to 0.5 ml of the incubation medium. The brain homogenate was added in order to facilitate the extraction of tyramine and 5-HT. The acid and neutral products were extracted into 6.0 ml of ethyl acetate by vigorous shaking for 10 s. After centrifugation, 4.0 ml of the organic phase was taken for determination of radicactivity, The remaining ethyl acetate was removed; the water phase was made alkaline with solid sodium carbonate and 1.0 ml of 0.5 M borate buffer, pH 10. The amine was then extracted into 6.0 ml of ethyl acetate and 4.0 ml of the organic phase was taken for the assay. The deamination of [^3H]tyramine and [^14C]-5-HT was determined simultaneously by utilizing the double-labeling technique. (S.B. Ross, A.L. Renyi, and S.-O. Ögren, Eur. J. Pharmacol., 17, 107 (1972)).
(§3) Inhibition of the MAO activity in the brain slices was determined 1 h after the intraperitoneal injection of the test compound. The inhibition was expressed in percent and calculated on the total formation of acid and neutral products formed in the brain slices of animals treated with the test compounds or with saline.

[2] = target: T1, monoamine oxidase enzyme (Mus musculus, UniProt Q64133); assay: MAO inhibition in mouse brain slices after intraperitoneal injection: deamination of [14C]-5-hydroxytryptamine; conditions: for inhibition of the MAO activity against 5-hydroxytryptamine (in words): in vivo; for ED50: effective dose for 50 % inhibition
T1 construct: from tissue; host or cells: mouse brain slices (hypothalamus, thalamus, midbrain), ex vivo after i.p. dosing
T1 sequence (Q64133 1-526): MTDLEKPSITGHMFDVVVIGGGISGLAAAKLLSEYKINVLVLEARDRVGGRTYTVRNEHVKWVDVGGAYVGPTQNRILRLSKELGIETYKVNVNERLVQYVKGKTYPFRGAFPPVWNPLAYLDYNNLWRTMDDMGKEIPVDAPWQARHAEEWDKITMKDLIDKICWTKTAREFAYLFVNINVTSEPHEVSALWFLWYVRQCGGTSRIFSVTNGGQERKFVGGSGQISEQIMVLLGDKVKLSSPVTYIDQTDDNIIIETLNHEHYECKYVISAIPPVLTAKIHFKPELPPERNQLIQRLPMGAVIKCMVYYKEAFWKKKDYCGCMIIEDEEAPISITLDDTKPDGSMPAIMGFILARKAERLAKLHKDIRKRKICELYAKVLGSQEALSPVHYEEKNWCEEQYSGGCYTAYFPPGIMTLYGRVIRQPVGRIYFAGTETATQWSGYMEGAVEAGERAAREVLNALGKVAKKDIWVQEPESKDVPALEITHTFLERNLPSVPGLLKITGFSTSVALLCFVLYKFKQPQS
Source text: as §1, §2, §3

[3] = target: T2, monoamine oxidase enzyme (Mus musculus, UniProt Q8BW75); assay: MAO inhibition in mouse brain slices after intraperitoneal injection: deamination of [3H]phenethylamine; conditions: for inhibition at 4 mg/kg: dose 4 mg/kg intraperitoneal; for inhibition at 32 mg/kg: dose 32 mg/kg intraperitoneal; for ED50: effective dose for 50 % inhibition; for inhibition at 29 mg/kg: dose 29 mg/kg intraperitoneal
T2 construct: from tissue; host or cells: mouse brain slices (hypothalamus, thalamus, midbrain), ex vivo after i.p. dosing
T2 sequence (Q8BW75 1-520): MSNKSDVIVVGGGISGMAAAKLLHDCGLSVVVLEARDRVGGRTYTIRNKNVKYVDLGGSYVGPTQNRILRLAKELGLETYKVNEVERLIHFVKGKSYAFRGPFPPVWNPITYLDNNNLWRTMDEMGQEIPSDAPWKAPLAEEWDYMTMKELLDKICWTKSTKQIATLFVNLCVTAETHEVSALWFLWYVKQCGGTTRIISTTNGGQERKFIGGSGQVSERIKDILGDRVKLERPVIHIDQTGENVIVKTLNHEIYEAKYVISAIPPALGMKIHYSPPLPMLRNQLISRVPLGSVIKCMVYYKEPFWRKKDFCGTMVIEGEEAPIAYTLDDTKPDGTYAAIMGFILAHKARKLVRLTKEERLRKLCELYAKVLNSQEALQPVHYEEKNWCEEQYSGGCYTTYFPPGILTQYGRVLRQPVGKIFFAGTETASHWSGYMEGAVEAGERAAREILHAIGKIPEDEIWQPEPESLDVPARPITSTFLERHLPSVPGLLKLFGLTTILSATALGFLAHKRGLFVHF
Source text: as §1, §2
[…] The inhibition was expressed in percent and calculated on the total formation of acid and neutral products formed in the brain slices of animals treated with the test compounds or with saline.

[4] = mouse, ip, deamination of 5-hydroxytryptamine, 1 h after adm.
[5] = mouse, ip, deamination of phenethylamine, 1 h after adm.
[6] = mouse, ip, deamination of phenethylamine, 24 h after adm.
[7] = comparison of ACS 104 with ACS 64

SMILES	ED50 [1]	inhibition of the MAO activity against tyramine (in words) [1]	inhibition of the MAO activity against 5-hydroxytryptamine (in words) ([2]; mouse)	inhibition at 32 mg/kg ([2]; mouse, ip, deamination of 5-hydroxytryptamine, dose 32 mg/kg intraperitoneal, 1 h after adm.)	ED50 [2, 4]	inhibition at 4 mg/kg [3, 5]	inhibition at 32 mg/kg [3, 5]	inhibition at 32 mg/kg [3, 6]	ED50 [3, 5]	potency relative to the prior art compound, MAO activity against tyramine [1, 7]	potency relative to the prior art compound, MAO activity against 5-hydroxytryptamine [2, 7]	inhibition at 29 mg/kg ([2]; mouse, ip, deamination of 5-hydroxytryptamine, dose 29 mg/kg intraperitoneal, 1 h after adm.)	potency relative to the prior art compound, inhibition of the MAO activity against phenethylamine ([3]; comparison of ED50-values of ACS 104 and ACS 64)	inhibition at 1 mg/kg ([3]; mouse, ip, deamination of phenethylamine, dose 1 mg/kg intraperitoneal, 1 h after adm.)	inhibition at 29 mg/kg [3, 5]	inhibition at 29 mg/kg [3, 6]
C=C=CCN(C)Cc1ccccc1.Cl [ACS 64, N-2,3-butadienyl--N-methylbenzylamine hydrochloride, reference compound]	>150 µmol/kg	only weak inhibitors	only weak inhibitors	16 ± 2%	> 150 µmol/kg	31 ± 7%	86 ± 3%	70 ± 1%	50 µmol/kg	–	–	–	–	–	–	–
C=C=C(CN)Cc1ccccc1.Cl [ACS 104, 2-benzyl-2,3-butadienamine hydrochloride]	<150 µmol/kg	only weak inhibitors	only weak inhibitors	–	~150 µmol/kg	67 ± 2%	–	–	16 µmol/kg	somewhat, more potent than the prior art compound	somewhat, more potent than the prior art compound	48 ± 2%	about three times as potent as the prior art compound	19 ± 3%	92 ± 1%	39 ± 2%
